Measured values published in ChEMBL document CHEMBL3991601, “The target landscape of clinical kinase drugs” (Science, 2017).
Counter-ions that a name gives are not always drawn. Activity calls are given as the source filed them. For most assays here, no stated cut-off is given here; in the data, actives have a measured Kd and inactives only a lower limit.

How the values were obtained:
Focal adhesion kinase 1 = Focal adhesion kinase 1 (Homo sapiens, UniProt Q05397)
[1] = target: T1, Acyl-CoA dehydrogenase family member 10 (Homo sapiens, UniProt Q6JQN1)
T1 sequence (Q6JQN1 whole entry): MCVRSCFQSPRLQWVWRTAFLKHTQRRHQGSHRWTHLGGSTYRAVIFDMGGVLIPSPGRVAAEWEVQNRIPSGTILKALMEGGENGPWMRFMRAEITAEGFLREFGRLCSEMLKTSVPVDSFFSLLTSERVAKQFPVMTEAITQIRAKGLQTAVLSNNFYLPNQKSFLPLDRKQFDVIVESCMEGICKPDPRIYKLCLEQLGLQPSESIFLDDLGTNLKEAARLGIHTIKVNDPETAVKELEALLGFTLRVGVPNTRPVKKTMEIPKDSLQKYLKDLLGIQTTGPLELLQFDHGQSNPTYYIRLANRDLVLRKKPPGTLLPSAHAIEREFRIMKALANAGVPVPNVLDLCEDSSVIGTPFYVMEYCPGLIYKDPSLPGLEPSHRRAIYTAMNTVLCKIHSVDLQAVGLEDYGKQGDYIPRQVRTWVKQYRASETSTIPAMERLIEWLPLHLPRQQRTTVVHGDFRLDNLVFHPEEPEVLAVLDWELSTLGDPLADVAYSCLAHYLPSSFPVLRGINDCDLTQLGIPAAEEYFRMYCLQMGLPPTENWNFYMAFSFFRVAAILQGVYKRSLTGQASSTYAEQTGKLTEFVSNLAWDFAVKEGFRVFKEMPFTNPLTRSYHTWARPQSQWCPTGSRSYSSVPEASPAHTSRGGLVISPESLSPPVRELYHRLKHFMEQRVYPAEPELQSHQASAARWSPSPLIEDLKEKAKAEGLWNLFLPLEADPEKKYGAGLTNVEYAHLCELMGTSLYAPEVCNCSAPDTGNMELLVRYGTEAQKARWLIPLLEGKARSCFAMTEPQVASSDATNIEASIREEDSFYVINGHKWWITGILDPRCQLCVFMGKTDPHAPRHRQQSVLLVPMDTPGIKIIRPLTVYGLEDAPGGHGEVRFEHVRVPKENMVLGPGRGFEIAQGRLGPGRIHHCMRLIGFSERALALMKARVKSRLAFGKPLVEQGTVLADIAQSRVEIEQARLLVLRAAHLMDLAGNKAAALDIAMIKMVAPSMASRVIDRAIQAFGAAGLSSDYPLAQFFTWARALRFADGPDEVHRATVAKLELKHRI

[2] = target: Proto-oncogene tyrosine-protein kinase receptor Ret (Homo sapiens, UniProt P07949)
[3] = target: Cyclin-dependent kinase 12 (Homo sapiens, UniProt Q9NYV4)
[4] = target: Protein-tyrosine kinase 2-beta (Homo sapiens, UniProt Q14289)
[5] = target: T2, Very long-chain specific acyl-CoA dehydrogenase, mitochondrial (Homo sapiens, UniProt P49748)
T2 sequence (P49748 whole entry): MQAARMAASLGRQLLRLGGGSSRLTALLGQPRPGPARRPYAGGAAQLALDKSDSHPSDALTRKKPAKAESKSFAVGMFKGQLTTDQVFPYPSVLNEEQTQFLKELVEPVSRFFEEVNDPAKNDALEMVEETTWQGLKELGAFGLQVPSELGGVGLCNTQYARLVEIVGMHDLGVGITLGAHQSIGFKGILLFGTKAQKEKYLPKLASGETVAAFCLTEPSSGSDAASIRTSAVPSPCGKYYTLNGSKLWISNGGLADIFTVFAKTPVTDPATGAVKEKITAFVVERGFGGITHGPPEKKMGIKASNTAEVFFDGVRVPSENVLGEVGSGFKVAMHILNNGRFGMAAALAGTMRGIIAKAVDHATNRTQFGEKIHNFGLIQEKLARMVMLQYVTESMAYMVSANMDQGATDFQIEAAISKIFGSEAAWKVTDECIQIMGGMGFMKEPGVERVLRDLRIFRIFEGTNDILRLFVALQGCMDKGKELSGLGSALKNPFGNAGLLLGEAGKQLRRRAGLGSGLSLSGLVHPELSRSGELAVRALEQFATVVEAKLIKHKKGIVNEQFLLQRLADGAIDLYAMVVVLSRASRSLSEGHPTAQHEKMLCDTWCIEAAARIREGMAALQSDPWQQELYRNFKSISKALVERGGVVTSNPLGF

[6] = target: T3, Ribosyldihydronicotinamide dehydrogenase [quinone] (Homo sapiens, UniProt P16083)
T3 sequence (P16083 whole entry): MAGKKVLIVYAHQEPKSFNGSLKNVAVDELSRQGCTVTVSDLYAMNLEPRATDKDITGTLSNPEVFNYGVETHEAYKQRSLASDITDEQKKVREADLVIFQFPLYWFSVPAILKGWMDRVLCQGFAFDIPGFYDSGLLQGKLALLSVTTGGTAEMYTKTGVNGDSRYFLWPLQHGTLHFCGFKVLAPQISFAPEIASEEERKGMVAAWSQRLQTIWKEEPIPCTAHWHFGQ

[7] = target: Tyrosine-protein kinase JAK1 (Homo sapiens, UniProt P23458)
[8] = target: Tyrosine-protein kinase Fer (Homo sapiens, UniProt P16591)
[9] = target: T4, Non-receptor tyrosine-protein kinase TNK1 (Homo sapiens, UniProt Q13470)
T4 sequence (Q13470 whole entry): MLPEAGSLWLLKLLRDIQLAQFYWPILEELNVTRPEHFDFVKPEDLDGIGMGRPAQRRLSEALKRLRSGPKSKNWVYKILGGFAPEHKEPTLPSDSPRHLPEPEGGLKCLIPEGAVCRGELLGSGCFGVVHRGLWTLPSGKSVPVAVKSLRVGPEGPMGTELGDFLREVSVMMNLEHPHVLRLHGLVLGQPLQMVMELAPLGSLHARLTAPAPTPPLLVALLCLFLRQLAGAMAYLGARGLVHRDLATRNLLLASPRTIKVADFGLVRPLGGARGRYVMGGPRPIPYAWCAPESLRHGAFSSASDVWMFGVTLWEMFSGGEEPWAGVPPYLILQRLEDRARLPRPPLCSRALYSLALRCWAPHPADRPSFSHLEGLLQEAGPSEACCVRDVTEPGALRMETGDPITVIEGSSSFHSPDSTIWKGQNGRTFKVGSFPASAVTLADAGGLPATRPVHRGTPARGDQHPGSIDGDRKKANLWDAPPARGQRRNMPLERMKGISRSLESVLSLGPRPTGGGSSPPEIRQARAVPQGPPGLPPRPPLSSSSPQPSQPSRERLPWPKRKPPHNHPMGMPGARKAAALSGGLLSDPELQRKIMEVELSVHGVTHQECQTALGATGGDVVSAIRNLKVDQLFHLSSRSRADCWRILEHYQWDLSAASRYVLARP

Sequence of Proto-oncogene tyrosine-protein kinase receptor Ret (P07949 whole entry): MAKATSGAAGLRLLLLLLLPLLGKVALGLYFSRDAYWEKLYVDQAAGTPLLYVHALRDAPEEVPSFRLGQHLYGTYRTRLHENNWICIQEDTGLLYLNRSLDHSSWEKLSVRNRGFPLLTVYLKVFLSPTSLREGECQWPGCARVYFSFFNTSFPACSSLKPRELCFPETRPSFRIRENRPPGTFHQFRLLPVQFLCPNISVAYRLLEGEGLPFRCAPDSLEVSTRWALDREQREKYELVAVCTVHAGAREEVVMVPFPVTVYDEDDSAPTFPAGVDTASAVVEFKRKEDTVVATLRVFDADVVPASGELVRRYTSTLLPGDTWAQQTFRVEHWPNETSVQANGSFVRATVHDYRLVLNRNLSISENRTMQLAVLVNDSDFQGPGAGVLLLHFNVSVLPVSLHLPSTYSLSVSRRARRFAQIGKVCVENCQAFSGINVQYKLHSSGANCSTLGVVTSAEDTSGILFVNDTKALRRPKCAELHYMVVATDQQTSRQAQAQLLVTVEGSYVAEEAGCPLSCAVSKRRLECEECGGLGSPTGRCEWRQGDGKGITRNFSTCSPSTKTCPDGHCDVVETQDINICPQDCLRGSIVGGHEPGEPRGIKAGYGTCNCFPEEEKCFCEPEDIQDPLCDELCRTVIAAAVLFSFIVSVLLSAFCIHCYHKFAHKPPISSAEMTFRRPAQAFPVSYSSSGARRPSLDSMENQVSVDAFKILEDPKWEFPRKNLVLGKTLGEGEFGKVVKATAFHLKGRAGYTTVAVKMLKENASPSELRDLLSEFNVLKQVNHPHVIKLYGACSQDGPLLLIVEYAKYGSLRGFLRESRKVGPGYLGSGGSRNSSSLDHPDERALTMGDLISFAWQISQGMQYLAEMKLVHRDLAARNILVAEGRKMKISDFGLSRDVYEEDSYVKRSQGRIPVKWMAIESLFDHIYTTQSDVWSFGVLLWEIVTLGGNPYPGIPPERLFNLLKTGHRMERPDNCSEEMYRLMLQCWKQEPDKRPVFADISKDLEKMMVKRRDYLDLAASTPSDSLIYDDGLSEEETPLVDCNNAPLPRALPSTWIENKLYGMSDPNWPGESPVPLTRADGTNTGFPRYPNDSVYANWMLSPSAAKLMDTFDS
Sequence of Tyrosine-protein kinase JAK1 (P23458 whole entry): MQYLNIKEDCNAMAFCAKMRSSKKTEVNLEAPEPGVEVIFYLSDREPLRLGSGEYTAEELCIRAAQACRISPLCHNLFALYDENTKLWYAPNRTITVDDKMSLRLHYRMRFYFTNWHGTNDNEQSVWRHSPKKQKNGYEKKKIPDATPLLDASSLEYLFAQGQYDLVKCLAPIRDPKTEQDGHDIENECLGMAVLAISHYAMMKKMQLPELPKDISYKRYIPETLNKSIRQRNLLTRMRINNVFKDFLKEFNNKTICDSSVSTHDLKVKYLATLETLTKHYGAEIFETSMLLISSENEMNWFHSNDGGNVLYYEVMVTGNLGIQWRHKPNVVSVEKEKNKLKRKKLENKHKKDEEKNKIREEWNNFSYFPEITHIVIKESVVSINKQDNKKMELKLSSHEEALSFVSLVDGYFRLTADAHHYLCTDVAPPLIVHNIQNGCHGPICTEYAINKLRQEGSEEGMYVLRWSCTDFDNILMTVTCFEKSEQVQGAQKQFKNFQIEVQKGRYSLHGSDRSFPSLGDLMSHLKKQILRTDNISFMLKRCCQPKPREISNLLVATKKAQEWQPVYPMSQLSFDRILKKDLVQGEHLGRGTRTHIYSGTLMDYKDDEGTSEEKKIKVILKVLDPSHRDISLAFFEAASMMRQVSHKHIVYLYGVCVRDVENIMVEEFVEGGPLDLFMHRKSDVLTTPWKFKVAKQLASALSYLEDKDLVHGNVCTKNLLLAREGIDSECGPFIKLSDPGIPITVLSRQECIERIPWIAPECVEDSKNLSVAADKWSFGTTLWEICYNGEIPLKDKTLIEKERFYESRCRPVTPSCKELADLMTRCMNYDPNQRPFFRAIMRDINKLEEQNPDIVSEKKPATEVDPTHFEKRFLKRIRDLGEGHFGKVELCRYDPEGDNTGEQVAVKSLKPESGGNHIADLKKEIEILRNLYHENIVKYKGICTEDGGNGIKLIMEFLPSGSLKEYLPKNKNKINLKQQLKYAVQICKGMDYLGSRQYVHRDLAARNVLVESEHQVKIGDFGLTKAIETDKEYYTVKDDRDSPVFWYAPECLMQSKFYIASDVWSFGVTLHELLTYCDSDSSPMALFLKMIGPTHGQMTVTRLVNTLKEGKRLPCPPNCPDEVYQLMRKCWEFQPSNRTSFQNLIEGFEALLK
Sequence of Tyrosine-protein kinase Fer (P16591 whole entry): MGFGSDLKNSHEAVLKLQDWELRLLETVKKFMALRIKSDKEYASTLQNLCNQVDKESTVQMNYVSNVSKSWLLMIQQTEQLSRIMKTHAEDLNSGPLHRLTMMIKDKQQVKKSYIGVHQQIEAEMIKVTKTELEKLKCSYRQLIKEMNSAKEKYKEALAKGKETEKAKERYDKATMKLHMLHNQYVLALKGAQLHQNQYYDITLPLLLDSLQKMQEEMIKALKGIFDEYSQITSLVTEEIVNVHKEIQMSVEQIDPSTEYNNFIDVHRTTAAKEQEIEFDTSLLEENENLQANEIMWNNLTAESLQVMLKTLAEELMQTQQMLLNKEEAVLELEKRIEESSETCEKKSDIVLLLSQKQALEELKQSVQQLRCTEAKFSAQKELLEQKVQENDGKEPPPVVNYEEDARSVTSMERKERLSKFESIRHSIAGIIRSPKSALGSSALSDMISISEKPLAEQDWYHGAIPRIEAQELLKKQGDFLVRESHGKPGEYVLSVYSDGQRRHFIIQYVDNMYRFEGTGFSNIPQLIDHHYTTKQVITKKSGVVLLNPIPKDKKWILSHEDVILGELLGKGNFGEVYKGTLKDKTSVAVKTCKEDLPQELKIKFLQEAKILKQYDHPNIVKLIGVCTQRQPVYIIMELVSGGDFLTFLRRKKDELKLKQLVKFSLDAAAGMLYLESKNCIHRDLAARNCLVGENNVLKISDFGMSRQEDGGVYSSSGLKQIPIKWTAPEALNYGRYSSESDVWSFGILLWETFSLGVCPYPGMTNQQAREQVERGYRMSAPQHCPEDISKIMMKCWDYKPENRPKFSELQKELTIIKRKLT
Sequence of Protein-tyrosine kinase 2-beta (Q14289 whole entry): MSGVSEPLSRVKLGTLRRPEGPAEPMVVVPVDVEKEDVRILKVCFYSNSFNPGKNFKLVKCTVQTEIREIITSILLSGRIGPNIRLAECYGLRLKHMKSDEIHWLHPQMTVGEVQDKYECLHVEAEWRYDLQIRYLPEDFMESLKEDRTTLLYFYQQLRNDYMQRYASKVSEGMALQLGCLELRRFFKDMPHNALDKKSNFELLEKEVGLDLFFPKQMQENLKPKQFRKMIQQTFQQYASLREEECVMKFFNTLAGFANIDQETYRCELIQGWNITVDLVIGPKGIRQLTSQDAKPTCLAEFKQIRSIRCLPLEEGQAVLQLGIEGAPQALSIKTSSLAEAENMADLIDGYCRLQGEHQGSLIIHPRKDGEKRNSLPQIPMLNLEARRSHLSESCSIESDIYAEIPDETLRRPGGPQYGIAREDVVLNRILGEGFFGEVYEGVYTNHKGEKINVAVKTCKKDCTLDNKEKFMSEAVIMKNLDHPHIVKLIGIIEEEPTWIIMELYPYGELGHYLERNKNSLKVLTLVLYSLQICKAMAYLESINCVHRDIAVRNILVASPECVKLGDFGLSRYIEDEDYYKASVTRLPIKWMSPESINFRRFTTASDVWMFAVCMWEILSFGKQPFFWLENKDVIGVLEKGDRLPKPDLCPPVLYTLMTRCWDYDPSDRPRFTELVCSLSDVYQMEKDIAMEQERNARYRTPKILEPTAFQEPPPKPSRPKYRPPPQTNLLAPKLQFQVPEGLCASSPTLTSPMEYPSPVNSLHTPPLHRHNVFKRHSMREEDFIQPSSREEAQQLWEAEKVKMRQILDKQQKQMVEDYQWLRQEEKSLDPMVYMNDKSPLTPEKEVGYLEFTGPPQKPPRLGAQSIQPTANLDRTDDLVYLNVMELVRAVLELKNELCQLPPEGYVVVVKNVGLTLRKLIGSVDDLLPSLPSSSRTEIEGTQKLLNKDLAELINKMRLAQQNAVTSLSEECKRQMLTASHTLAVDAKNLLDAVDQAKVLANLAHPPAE

Row | SMILES | Kd (Focal adhesion kinase 1) | Kd [1] | Kd [2] | Kd [3] | Kd [4] | Kd [5] | Kd [6] | Kd [7] | Kd [8] | Kd [9]
1 | C[C@@H](Oc1cc(C(=O)Nc2ccc(C(=O)N3CCN(C)CC3)cc2)nnc1N)c1c(Cl)ccc(F)c1Cl | > 30 µM (inactive) | > 30 µM (inactive) | > 30 µM (inactive) | > 30 µM (inactive) | > 30 µM (inactive) | > 30 µM (inactive) | > 30 µM (inactive) | > 30 µM (inactive) | > 30 µM (inactive) | > 30 µM (inactive)
2 | C[C@H]1CNCCCN1S(=O)(=O)c1cccc2cncc(F)c12 | > 30 µM (inactive) | > 30 µM (inactive) | > 30 µM (inactive) | > 30 µM (inactive) | > 30 µM (inactive) | > 30 µM (inactive) | 3.7 µM (active) | > 30 µM (inactive) | > 30 µM (inactive) | > 30 µM (inactive)
3 | Cc1nc2cc(-c3nn(C(C)C)c4ncnc(N)c34)ccc2o1 | > 30 µM (inactive) | > 30 µM (inactive) | 1.6 µM (active) | > 30 µM (inactive) | > 30 µM (inactive) | > 30 µM (inactive) | > 30 µM (inactive) | > 30 µM (inactive) | > 30 µM (inactive) | > 30 µM (inactive)
4 | Nc1ncnc2c1c(-c1cccc(OCc3ccccc3)c1)cn2[C@H]1C[C@@H](CN2CCC2)C1 [AEW-541] | > 30 µM (inactive) | > 30 µM (inactive) | 23.2 µM (active) | > 30 µM (inactive) | > 30 µM (inactive) | > 30 µM (inactive) | > 30 µM (inactive) | > 30 µM (inactive) | > 30 µM (inactive) | > 30 µM (inactive)
5 | Cc1nc(NC(=O)N2CCC[C@H]2C(N)=O)sc1-c1ccnc(C(C)(C)C(F)(F)F)c1 [ALPELISIB] | > 30 µM (inactive) | > 30 µM (inactive) | > 30 µM (inactive) | > 30 µM (inactive) | > 30 µM (inactive) | > 30 µM (inactive) | > 30 µM (inactive) | > 30 µM (inactive) | > 30 µM (inactive) | > 30 µM (inactive)
6 | Cc1csc(-c2nnc(Nc3ccc(Oc4ncccc4-c4ccnc(N)n4)cc3)c3ccccc23)c1 [AMG-900] | > 30 µM (inactive) | > 30 µM (inactive) | 1.14 µM (active) | 2.98 µM | > 30 µM (inactive) | > 30 µM (inactive) | 3.35 µM (active) | > 30 µM (inactive) | > 30 µM (inactive) | > 30 µM (inactive)
7 | C=CC(=O)Nc1cc2c(Nc3ccc(F)c(Cl)c3)ncnc2cc1C#CC(C)(C)N1CCN(C)CC1 [AV-412 FREE BASE] | > 30 µM (inactive) | > 30 µM (inactive) | > 30 µM (inactive) | > 30 µM (inactive) | > 30 µM (inactive) | > 30 µM (inactive) | > 30 µM (inactive) | > 30 µM (inactive) | > 30 µM (inactive) | > 30 µM (inactive)
8 | Cn1cnc2c(F)c(Nc3ccc(Br)cc3F)c(C(=O)NOCCO)cc21 [BINIMETINIB] | > 30 µM (inactive) | > 30 µM (inactive) | > 30 µM (inactive) | > 30 µM (inactive) | > 30 µM (inactive) | > 30 µM (inactive) | 14.7 µM (active) | > 30 µM (inactive) | > 30 µM (inactive) | > 30 µM (inactive)
9 | CCn1c(C(=O)N(C2CC2)C2CC2)cc2c3c(ncn3C)c(Nc3cc(C)n(C)n3)nc21 [BMS-911543] | > 30 µM (inactive) | > 30 µM (inactive) | > 30 µM (inactive) | > 30 µM (inactive) | > 30 µM (inactive) | > 30 µM (inactive) | 5.86 µM (active) | > 30 µM (inactive) | > 30 µM (inactive) | > 30 µM (inactive)
10 | COc1c(OCCCN2CCOCC2)ccc2c1N=C(NC(=O)c1cnc(N)nc1)N1CCN=C21 [COPANLISIB] | > 30 µM (inactive) | > 30 µM (inactive) | > 30 µM (inactive) | > 30 µM (inactive) | > 30 µM (inactive) | > 30 µM (inactive) | > 30 µM (inactive) | > 30 µM (inactive) | > 30 µM (inactive) | > 30 µM (inactive)
11 | COCC(=O)NC/C=C/c1ccc2ncnc(Nc3ccc(Oc4ccc(C)nc4)c(C)c3)c2c1 [CP-724714] | > 30 µM (inactive) | > 30 µM (inactive) | > 30 µM (inactive) | > 30 µM (inactive) | > 30 µM (inactive) | > 30 µM (inactive) | > 30 µM (inactive) | > 30 µM (inactive) | > 30 µM (inactive) | > 30 µM (inactive)
12 | CCS(=O)(=O)N1CCN(c2ccc(Nc3ncc(C(N)=O)c(NC4CC4)n3)cc2)CC1 [Cerdulatinib Hydrochloride] | > 30 µM (inactive) | > 30 µM (inactive) | 1.23 µM (active) | > 30 µM (inactive) | > 30 µM (inactive) | > 30 µM (inactive) | > 30 µM (inactive) | 0.078 µM (active) | > 30 µM (inactive) | > 30 µM (inactive)
13 | Cc1cccc(-c2nn3c(c2-c2ccnc4ccc(C(N)=O)cc24)CCC3)n1 [GALUNISERTIB] | > 30 µM (inactive) | > 30 µM (inactive) | > 30 µM (inactive) | > 30 µM (inactive) | > 30 µM (inactive) | > 30 µM (inactive) | > 30 µM (inactive) | > 30 µM (inactive) | > 30 µM (inactive) | > 30 µM (inactive)
14 | COc1ccc(S(=O)(=O)N(C(C)=O)c2ccccc2/C=C/c2cc[n+]([O-])cc2)cc1 [HMN-214] | > 30 µM (inactive) | > 30 µM (inactive) | > 30 µM (inactive) | > 30 µM (inactive) | > 30 µM (inactive) | > 30 µM (inactive) | > 30 µM (inactive) | > 30 µM (inactive) | > 30 µM (inactive) | > 30 µM (inactive)
